Laboratory results reported in the OPERA property sets (Mansouri et al. 2018).

Row | Compound | boiling point | melting point | further results
1 | CC(C)c1ccccc1Cl | 191 °C | -74.4 °C | –
2 | C#CC(C)(C)C | 37.7 °C | -78.2 °C | –
3 | NS(=O)(=O)c1cc2c(s1)S(=O)(=O)CCC2=O | – | 242 °C | –
4 | O=C1c2ccc(O)c(O)c2C(=O)c2ccc(O)c(O)c21 | – | 340 °C | –
5 | CC(=O)OCC(=O)[C@@]1(O)CC[C@H]2[C@@H]3C[C@H](C)C4=CC(=O)C=C[C@]4(C)[C@H]3[C@@H](O)C[C@@]21C | – | 206 °C | –
6 | C=CC(=C)CCC=C(C)C | 167 °C | – | log10 vapour pressure (mmHg): 0.304; ready biodegradability: readily biodegradable
7 | CCC(C)CC | 63.2 °C | -163 °C | log10 vapour pressure (mmHg): 2.28
8 | Cc1ccc(C)c2ccccc12 | 268 °C | 7.6 °C | log10 biodegradation half-life (days): 1.18; log10 vapour pressure (mmHg): -1.67
9 | OC(C(F)(F)F)(C(F)(F)F)C(F)(F)F | 45 °C | – | –
10 | C1COCCOCCOCCO1 | – | 16 °C | –
11 | CCCC(=O)OC(C)C | 130 °C | – | –
12 | CCCC(=O)Nc1c(I)cc(I)c(CC(CC)C(=O)[O-])c1I.[Na+] (centres undefined) | – | 209 °C | –
13 | CCCCCCCCC(=O)OCCCC | – | -38 °C | log10 vapour pressure (mmHg): -1.67
14 | O=c1[nH]c(=O)n([C@H]2CC[C@@H](CO)O2)cc1Br | – | 180 °C | –
15 | CC(C)OC(=O)C(C(=O)OC(C)C)=C1SCCS1 | – | 54 °C | log10 BCF (fish): 1.57
16 | CCC=C(C)CCC | 121 °C | – | –
17 | CCc1ccccc1-c1ccccc1 | 266 °C | -6 °C | –
18 | OC1CCCCCCCCCCCCCC1 | – | 80.5 °C | –
19 | S=c1[nH]c2ccccc2[nH]1 | – | 298 °C | ready biodegradability: not readily biodegradable
20 | CCCCCCC[C@H](C)O | 194 °C | -35.5 °C | log10 vapour pressure (mmHg): -1.17
21 | C[C@@H]1O[C@@H](Oc2c(-c3ccc(O)c(O)c3)oc3cc(O)cc(O)c3c2=O)[C@H](O)[C@H](O)[C@H]1O | – | 170 °C | –
22 | CC(C)(Oc1ccc(CCNC(=O)c2ccc(Cl)cc2)cc1)C(=O)O | – | 186 °C | –
23 | CCC(Cc1c(I)cc(I)c(N)c1I)C(=O)O (centres undefined) | – | 155 °C | –

Row | Compound | boiling point | melting point | further results
24 | O=Cc1cccc(C(=O)O)c1 | – | 174 °C | –
25 | CCCCCCCCCCc1ccc(N)cc1 | – | 25 °C | –
26 | Nc1c(O)cccc1[N+](=O)[O-] | – | 216 °C | –
27 | c1cn[nH]n1 | 204 °C | 23 °C | –
28 | CCCCCCCCC(=O)OCCCCCCC | – | -15.5 °C | –
29 | COCCl | 59.5 °C | -104 °C | log10 vapour pressure (mmHg): 1.48; ready biodegradability: readily biodegradable
30 | CCCCc1ccccc1O | 235 °C | -20 °C | log10 vapour pressure (mmHg): -1.99
31 | CC(C)(C)c1cc([N+](=O)[O-])c(O)c([N+](=O)[O-])c1 | – | 95 °C | –
32 | CCC[C@@H](O)CC | 135 °C | – | log10 vapour pressure (mmHg): 0.682
33 | FC1CCCCC1 | 101 °C | 13 °C | –
34 | Clc1ccc(-c2c(Cl)cc(Cl)c(Cl)c2Cl)cc1Cl | – | 107 °C | log10 biotransformation half-life (days) (fish): 2.57
35 | OCC1CCC(CO)CC1 (centres undefined) | 285 °C | 51 °C | log10 vapour pressure (mmHg): -3.51
36 | C#CCC=C | 42.5 °C | – | –
37 | O=C1C=C(Cl)C(=O)C(Cl)=C1 | – | 123 °C | –
38 | BrCC(Br)Br | 189 °C | -29.3 °C | –
39 | Cc1cc(N)ccc1Cl | 241 °C | 83.5 °C | ready biodegradability: not readily biodegradable
40 | O=[N+]([O-])O[C@H]1CO[C@H]2[C@@H]1OC[C@H]2O[N+](=O)[O-] | – | 70 °C | –
41 | CC(S)CS (centres undefined) | 152 °C | – | –
42 | CON=C(Cc1cccnc1)c1ccc(Cl)cc1Cl | – | – | log10 vapour pressure (mmHg): -4.89
43 | O=C(O)[C@H](O)[C@@H](O)[C@H](O)[C@H](O)CO | – | 131 °C | –
44 | CCOP(=S)(OCC)SCSP(=S)(OCC)OCC | – | -13 °C | log10 Koc (L/kg): 4.06; log10 vapour pressure (mmHg): -5.82
45 | COC(=O)c1ccccc1O[C@@H]1O[C@H](CO[C@@H]2OC[C@@H](O)[C@H](O)[C@H]2O)[C@@H](O)[C@H](O)[C@H]1O | – | 180 °C | –
46 | CCC(=O)Nc1ccccc1 | 222 °C | 106 °C | ready biodegradability: not readily biodegradable
